Data on 5 molecules can be found in patent US20230278972A1, “SUBSTITUTED HALOALKYL SULFONANILIDE HERBICIDES” (FMC Corporation, priority 2020, published 2023).

Holding throughout (assay type): in vivo
For experiment [1], the system named is goosegrass (Eleusine indica). Briefly: Test A1 preemergence, goosegrass. The method in brief: (§1)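 Herbicidal response was scored on plants treated either preemergence, by directed spray onto soil of a loam–sand blend after sowing, or postemergence on potted plants at the one- to two-leaf stage, 2–10 cm high. Test chemicals were carried in a non-phytotoxic solvent mix with surfactant.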

In experiment [2] the test system is Oat, Wild (wild oat, Avena fatua). The experiment in a line: Test A1 preemergence, Oat, Wild. In short, it runs like this:
as §1

The subject of experiment [3] is ragweed (common ragweed, Ambrosia artemisiifolia). The experiment in a line: Test A1 preemergence, ragweed. In short, it runs like this: as §1
The test system of experiment [4] is wheat (Triticum aestivum). The experiment in a line: Test A1 preemergence, wheat. In short, it runs like this: as §1
In another experiment the test system is corn (Zea mays). Briefly: Test A1 postemergence, corn. The conditions noted are these: Postemergence. The method in brief: as §1
The subject of experiment [5] is goosegrass (Eleusine indica). The experiment in a line: Test A1 postemergence, goosegrass. The conditions noted are these: Postemergence. The method in brief: (§2)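 Plants were grown in a loam soil/sand blend, with test chemicals formulated in a non-phytotoxic solvent mixture containing surfactant. Preemergence treatment (corn) was a directed soil spray at planting. Postemergence treatment was applied to plants 2 to 10 cm tall at the one- to two-leaf stage.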

In a further experiment the test system is kochia (Bassia scoparia). The experiment in a line: Test A1 postemergence, kochia. The conditions noted are these: Postemergence. In short, it runs like this:
as §2

In experiment [6] the test system is Pigweed, Palmer (palmer amaranth, palmer pigweed, Amaranthus palmeri). The experiment in a line: Test A1 postemergence, Pigweed, Palmer. The settings on record: Postemergence. In short, it runs like this:
(§3)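 Pre: seeds in loam/sand blend, directed soil spray. Post: potted plants, same soil, 2–10 cm, 1–2 leaf stage. Chemicals in non-phytotoxic solvent + surfactant for both.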

Experiment [7] has as its system ragweed (common ragweed, Ambrosia artemisiifolia). The experiment in a line: Test A1 postemergence, ragweed. The conditions noted are these: Postemergence. The method in brief:
as §3

The next experiment concerns soybean (Glycine max). The experiment in a line: Test A1 postemergence, soybean. The conditions noted are these: Postemergence. The method in brief:
as §2

Setting [8] is: 31 g ai/ha, 0 to 100 scale (0 no effect, 100 complete control).
[9] abbreviates: 125 g ai/ha, 0 to 100 scale, 0 no effect, 100 complete control.
The mark [10] stands for this setting: 31 g ai/ha, 0 to 100 scale (0 no effect, 100 complete control), 10 days.

The structures appear in SMILES notation.

Turning to `Cc1cc(F)c(NS(=O)(=O)C(F)(F)F)cc1C1=NOC2(CCCC2)C1` [Compound 303], the “Plant response rating, Goosegrass” value came out at 50 in experiment [1] (setting [8]); 100 in experiment [1] (setting [9]); 0 in experiment [5] (setting [10]); 70 in [5] (125 g ai/ha, 0 to 100 scale). The “Plant response rating, Oat, Wild” value in experiment [2] (setting [8]) came to 20; in experiment [2] (setting [9]) it was 60. Further, the “Plant response rating, Ragweed” value in experiment [3] (setting [8]) was 0; in experiment [3] (setting [9]), 0; in [7] (setting [10]), 30; in experiment [7] (125 g ai/ha, 0 to 100 scale) it was 80. In addition, the “Plant response rating, Wheat” value turned out to be 30 in experiment [4] (setting [8]) and 90 in experiment [4] (setting [9]). Further, the “Plant response rating, Corn” value with corn (Zea mays) (setting [10]) is given as 0; in the experiment with corn (Zea mays) (125 g ai/ha, 0 to 100 scale), 40. Further, the “Plant response rating, Kochia” value with kochia (Bassia scoparia) (setting [10]) worked out at 0; in the experiment with kochia (Bassia scoparia) (125 g ai/ha, 0 to 100 scale), 60. Besides, the “Plant response rating, Pigweed, Palmer” value amounted to 0 in [6] (setting [10]) and 20 in experiment [6] (125 g ai/ha, 0 to 100 scale). For the same molecule, the “Plant response rating, Soybean” value was 30 in the experiment on soybean (Glycine max) (setting [10]) and 50 with soybean (Glycine max) (125 g ai/ha, 0 to 100 scale).
In the case of `COc1cc(C)c(C2=NOC3(CCCC3)C2)cc1NS(=O)(=O)C(F)(F)F` [Compound 304], the “Plant response rating, Goosegrass” value in experiment [1] (setting [8]) turned out to be 30; in experiment [1] (setting [9]), 90; in [5] (setting [10]), 0; in experiment [5] (125 g ai/ha, 0 to 100 scale) it was 0. In addition, the figures for the “Plant response rating, Oat, Wild” value in [2] (setting [8]) and in experiment [2] (setting [9]) were 50 and 0, respectively. In addition, the “Plant response rating, Ragweed” value worked out at 0 in [3] (setting [8]); 50 in [3] (setting [9]); 0 in experiment [7] (setting [10]); 30 in experiment [7] (125 g ai/ha, 0 to 100 scale). For the same molecule, the “Plant response rating, Wheat” value in experiment [4] (setting [8]) was found to be 0; in experiment [4] (setting [9]), 20. Moreover, the “Plant response rating, Corn” value in the experiment on corn (Zea mays) (setting [10]) amounted to 0; in the experiment with corn (Zea mays) (125 g ai/ha, 0 to 100 scale) it was 20. For the same molecule, the “Plant response rating, Kochia” value with kochia (Bassia scoparia) (setting [10]) was 0; in the experiment with kochia (Bassia scoparia) (125 g ai/ha, 0 to 100 scale), 20. For the same molecule, the “Plant response rating, Pigweed, Palmer” value worked out at 0 in experiment [6] (setting [10]) and 0 in experiment [6] (125 g ai/ha, 0 to 100 scale). The “Plant response rating, Soybean” value with soybean (Glycine max) (setting [10]) was 20; in the experiment with soybean (Glycine max) (125 g ai/ha, 0 to 100 scale) it was 50.
Regarding `CCc1cc(C)c(NS(=O)(=O)C(F)(F)F)cc1C1=NOC2CCCC12` (stereo not shown) [Compound 305], the “Plant response rating, Goosegrass” value in experiment [1] (setting [8]) is recorded as 90; in experiment [1] (setting [9]) it was 90; in experiment [5] (setting [10]) it was 10; in experiment [5] (125 g ai/ha, 0 to 100 scale), 80. For the same molecule, the “Plant response rating, Oat, Wild” value is 20 in [2] (setting [8]) and 60 in [2] (setting [9]). Further, the “Plant response rating, Ragweed” value turned out to be 0 in [3] (setting [8]); 20 in experiment [3] (setting [9]); 0 in [7] (setting [10]); 60 in [7] (125 g ai/ha, 0 to 100 scale). Further, the “Plant response rating, Wheat” value in experiment [4] (setting [8]) is 20; in experiment [4] (setting [9]) it was 40. Besides, the “Plant response rating, Corn” value in the experiment on corn (Zea mays) (setting [10]) is recorded as 0; in the experiment on corn (Zea mays) (125 g ai/ha, 0 to 100 scale) it was 0. Moreover, the “Plant response rating, Kochia” value with kochia (Bassia scoparia) (setting [10]) is listed as 0; in the experiment on kochia (Bassia scoparia) (125 g ai/ha, 0 to 100 scale), 10. In addition, the “Plant response rating, Pigweed, Palmer” value is 0 in [6] (setting [10]) and 40 in [6] (125 g ai/ha, 0 to 100 scale). The “Plant response rating, Soybean” value was found to be 10 with soybean (Glycine max) (setting [10]) and 50 with soybean (Glycine max) (125 g ai/ha, 0 to 100 scale).
Regarding `Cc1cc(C(F)(F)F)c(C2=NOC3CCCC23)cc1NS(=O)(=O)C(F)(F)F` (stereo not shown) [Compound 306], the “Plant response rating, Goosegrass” value in experiment [1] (setting [8]) was 50; in [1] (setting [9]) it was 100; in experiment [5] (setting [10]), 0; in experiment [5] (125 g ai/ha, 0 to 100 scale), 80. Also, the “Plant response rating, Oat, Wild” value is given as 0 in experiment [2] (setting [8]) and 10 in experiment [2] (setting [9]). The “Plant response rating, Ragweed” value is 0 in experiment [3] (setting [8]); 10 in experiment [3] (setting [9]); 0 in experiment [7] (setting [10]); 70 in [7] (125 g ai/ha, 0 to 100 scale). In addition, the “Plant response rating, Wheat” value in [4] (setting [8]) and in experiment [4] (setting [9]) was 0 each time. Moreover, the “Plant response rating, Corn” value in the experiment with corn (Zea mays) (setting [10]) stood at 0; in the experiment on corn (Zea mays) (125 g ai/ha, 0 to 100 scale) it was 0. Further, the “Plant response rating, Kochia” value with kochia (Bassia scoparia) (setting [10]) is given as 0; in the experiment on kochia (Bassia scoparia) (125 g ai/ha, 0 to 100 scale), 20. In addition, the “Plant response rating, Pigweed, Palmer” value in [6] (setting [10]) is listed as 0; in experiment [6] (125 g ai/ha, 0 to 100 scale), 40. Besides, the “Plant response rating, Soybean” value in the experiment with soybean (Glycine max) (setting [10]) was 20; in the experiment on soybean (Glycine max) (125 g ai/ha, 0 to 100 scale) it was 40.
As for `Cc1cc(C2CC2)c(C2=NOC3CCCC23)cc1NS(=O)(=O)C(F)(F)F` (stereo not shown) [Compound 307], the “Plant response rating, Goosegrass” value in experiment [1] (setting [8]) came out at 80; in experiment [1] (setting [9]), 100; in experiment [5] (setting [10]), 30; in experiment [5] (125 g ai/ha, 0 to 100 scale), 80. For the same molecule, the “Plant response rating, Oat, Wild” value in [2] (setting [8]) is 0; in experiment [2] (setting [9]), 40. Further, the “Plant response rating, Ragweed” value in experiment [3] (setting [8]) stood at 0; in experiment [3] (setting [9]) it was 60; in experiment [7] (setting [10]), 0; in experiment [7] (125 g ai/ha, 0 to 100 scale) it was 80. Further, the “Plant response rating, Wheat” value in [4] (setting [8]) was found to be 10; in experiment [4] (setting [9]) it was 80. Moreover, the “Plant response rating, Corn” value in the experiment with corn (Zea mays) (setting [10]) turned out to be 0; in the experiment with corn (Zea mays) (125 g ai/ha, 0 to 100 scale), 0. For the same molecule, the “Plant response rating, Kochia” value with kochia (Bassia scoparia) (setting [10]) stood at 0; in the experiment on kochia (Bassia scoparia) (125 g ai/ha, 0 to 100 scale), 30. Also, the “Plant response rating, Pigweed, Palmer” value in experiment [6] (setting [10]) is 0; in [6] (125 g ai/ha, 0 to 100 scale) it was 40. In addition, the “Plant response rating, Soybean” value in the experiment with soybean (Glycine max) (setting [10]) was found to be 10; with soybean (Glycine max) (125 g ai/ha, 0 to 100 scale), 50.
